Values quoted from earlier work in patent US8741342B2, “Pharmaceutical compositions comprising entacapone, levodopa, and carbidopa” (Wockhardt Research Centre, priority 2006, dated 2014).

Details: qualitative description in background section

solubility in water | Structure (SMILES)
slightly soluble in water | C[C@@](Cc1ccc(O)c(O)c1)(NN)C(=O)O [Carbidopa, (−)-L-(α-hydrazino-(α-methyl-β-(3,4-dihydroxybenzene)propanoic acid monohydrate]
slightly soluble in water | N[C@@H](Cc1ccc(O)c(O)c1)C(=O)O [Levodopa, (−)-L-α-amino-β-(3,4-dihydroxybenzene)propanoic acid]
